target: T1, DNA-PK (Homo sapiens (Human), UniProt P78527); assay: not given; conditions: cited from earlier work

| SMILES | IC50 [nM] |
| --- | --- |
| O=c1cc(N2CCOCC2)oc2c(-c3cccc4c3sc3ccccc34)cccc12 [NU-7441] | 20 |

target: T1, DNA-PK; assay: DNA-PK/biochemical assay (FlashPlate kinase assay); conditions: 5 μM ATP, 90 min, room temperature
Method: The kinase assay was carried out in streptavidin-coated […] microtitre FlashPlates®. To this end, 1.5 μg of the DNA-PK/protein complex and 100 ng of biotinylated substrate, such as, for example, PESQEAFADLWKK biotin-NH2 (“biotin-DNA-PK peptide”), in a total volume of 36.5 μl (34.25 mM HEPES/KOH, 7.85 mM Tris-HCl, 68.5 mM KCl, 5 μM ATP, 6.85 mM MgCl2, 0.5 mM EDTA, 0.14 mM EGTA, 0.69 mM DTT, pH 7.4), were incubated at room temperature for 90 min with 500 ng of DNA from calf thymus, 0.1 μCi of 33P-ATP and 1.8% of DMSO per well with or without the test compound. The reaction was stopped using 50 μl/well of 200 mM EDTA. After incubation for a further 30 min at room temperature, the liquid was removed. Each well was washed three times with 100 μl of 0.9% sodium chloride solution. A non-specific reaction (blank value) was determined using 10 μM of a proprietary kinase inhibitor. The radioactivity measurement was carried out by means of a TopCount. IC50 values were calculated in RS1 (Kashishian et al. (2003) Molecular Cancer Therapeutics 1257).

| IC50 [nM] | SMILES |
| --- | --- |
| < 100 | COc1cc2ncc3c(c2cc1OC(C(N)=O)c1ccc(F)cc1)n(-c1c(F)cc(C#N)cc1F)c(=O)n3C (stereo not drawn) [Compound 25, 2-[1-(4-Cyano-2,6-difluoro-phenyl)-7-methoxy-3-methyl-2-oxo-2,3-dihydro-1H-imidazo-[4,5-c]quinolin-8-yloxy]-2-(4-fluorophenyl)acetamide] |
| < 100 | COc1cc2ncc3c(c2cc1OCc1ccsc1)n(-c1c(F)cc(C#N)cc1F)c(=O)n3C [Compound 26, 3,5-Difluoro-4-(7-methoxy-3-methyl-2-oxo-8-(thiophen-3-ylmethoxy)-2,3-dihydroimidazo-[4,5-c]quinolin-1-yl)benzonitrile] |
| < 100 | COc1cc2ncc3c(c2cc1OCc1ccc(F)cc1)n(-c1c(F)cc(C#N)cc1F)c(=O)n3C [Compound 27, 3,5-Difluoro-4-[8-(4-fluoro-benzyloxy)-7-methoxy-3-methyl-2-oxo-2,3-dihydroimidazo-[4,5-c]quinolin-1-yl]benzonitrile] |
| < 100 | COc1cc2ncc3c(c2cc1OCc1cccs1)n(-c1c(F)cc(C#N)cc1F)c(=O)n3C [Compound 28, 3,5-Difluoro-4-(7-methoxy-3-methyl-2-oxo-8-(thiophen-2-ylmethoxy)-2,3-dihydroimidazo-[4,5-c]quinolin-1-yl)benzonitrile] |
| < 100 | COc1cc2ncc3c(c2cc1OCc1cncs1)n(-c1ccc(C#N)cc1F)c(=O)n3C [Compound 30, 3-Fluoro-4-[7-methoxy-3-methyl-2-oxo-8-(thiazol-5-ylmethoxy)-2,3-dihydroimidazo[4,5-c]-quinolin-1-yl)benzonitrile] |
| 100 to 500 | COc1cc2ncc3c(c2cc1OC(CN)c1cccs1)n(-c1ccc(C#N)cc1F)c(=O)n3C (stereo not drawn) [Compound 31, 4-[8-(2-Amino-1-thiophen-2-ylethoxy)-7-methoxy-3-methyl-2-oxo-2,3-dihydroimidazo-[4,5-c]quinolin-1-yl]-3-fluorobenzonitrile] |
| 500 to 1000 | COc1cc2ncc3c(c2cc1OC(CN)c1ccc(F)cc1)n(-c1ccc(C#N)cc1F)c(=O)n3C (stereo not drawn) [Compound 32, 4-{8-[2-Amino-1-(4-fluorophenyl)ethoxy]-7-methoxy-3-methyl-2-oxo-2,3-dihydro-imidazo[4,5-c]quinolin-1-yl}-3-fluorobenzonitrile] |
| < 100 | COc1cc2ncc3c(c2cc1-c1cccnc1)n(-c1ccc(C#N)cc1F)c(=O)n3C [Compound 33, 3-Fluoro-4-(7-methoxy-3-methyl-2-oxo-8-pyridin-3-yl-2,3-dihydro-imidazo[4,5-c]quinolin-1-yl)-benzonitrile] |
| < 100 | COc1ccc(-c2cc3c(cc2OC)ncc2c3n(-c3ccc(C#N)cc3F)c(=O)n2C)cn1 [Compound 34, 3-Fluoro-4-[7-methoxy-8-(6-methoxypyridin-3-yl)-3-methyl-2-oxo-2,3-dihydroimidazo[4,5-c]-quinolin-1-yl)benzonitrile] |
| < 100 | COc1cc2ncc3c(c2cc1-c1cnc2ccccc2c1)n(-c1ccc(C#N)cc1F)c(=O)n3C [Compound 35, 3-Fluoro-4-(7-methoxy-3-methyl-2-oxo-8-quinolin-3-yl-2,3-dihydroimidazo[4,5-c]quinolin-1-yl)benzonitrile] |
| < 100 | COc1cc2ncc3c(c2cc1-c1cnn(C)c1)n(-c1ccc(C#N)cc1F)c(=O)n3C [Compound 36, 3-Fluoro-4-[7-methoxy-3-methyl-8-(1-methyl-1H-pyrazol-4-yl)-2-oxo-2,3-dihydroimidazo[4,5-c]-quinolin-1-yl]benzonitrile] |
| < 100 | COc1cc2ncc3c(c2cc1-c1cn[nH]c1)n(-c1ccc(C#N)cc1F)c(=O)n3C [Compound 37, 3-Fluoro-4-[7-methoxy-3-methyl-2-oxo-8-(1H-pyrazol-4-yl)-2,3-dihydroimidazo[4,5-c]quinolin-1-yl)benzonitrile] |
| 100 to 500 | COc1cc2ncc3c(c2cc1-c1ccnn1C)n(-c1ccc(C#N)cc1F)c(=O)n3C [Compound 38, 3-Fluoro-4-[7-methoxy-3-methyl-8-(2-methyl-2H-pyrazol-3-yl)-2-oxo-2,3-dihydroimidazo[4,5-c]-quinolin-1-yl)benzonitrile] |
| < 100 | COc1cc2ncc3c(c2cc1-c1ccn[nH]1)n(-c1ccc(C#N)cc1F)c(=O)n3C [Compound 39, 3-Fluoro-4-[7-methoxy-3-methyl-2-oxo-8-(2H-pyrazol-3-yl)-2,3-dihydroimidazo[4,5-c]quinolin-1-yl]benzonitrile] |
| 100 to 500 | COc1cc2ncc3c(c2cc1-c1cc(C(F)(F)F)nn1C)n(-c1ccc(C#N)cc1F)c(=O)n3C [Compound 40, 3-Fluoro-4-[7-methoxy-3-methyl-8-(2-methyl-5-trifluoromethyl-2H-pyrazol-3-yl)-2-oxo-2,3-dihydro-imidazo[4,5-c]quinolin-1-yl]-benzonitrile] |
| < 100 | COc1cc2ncc3c(c2cc1/C=C/c1ccsc1)n(-c1ccc(C#N)cc1F)c(=O)n3C [Compound 41, 3-Fluoro-4-[7-methoxy-3-methyl-2-oxo-8-((E)-2-thiophen-3-yl-viniyl)-2,3-dihydroimidazo-[4,5-c]quinolin-1-yl]benzonitrile] |
| 100 to 500 | COc1cc2ncc3c(c2cc1CCc1ccsc1)n(-c1ccc(C#N)cc1F)c(=O)n3C [Compound 42, 3-Fluoro-4-[7-methoxy-3-methyl-2-oxo-8-(2-thiophen-3-ylethyl)-2,3-dihydroimidazo[4,5-c]-quinolin-1-yl]benzonitrile] |
| 100 to 500 | COc1cc2ncc3c(c2cc1/C=C/c1ccccc1)n(-c1ccc(C#N)cc1F)c(=O)n3C [Compound 43, 3-Fluoro-4-[7-methoxy-3-methyl-2-oxo-8-((E)-styryl)-2,3-dihydroimidazo[4,5-c]quinolin-1-yl]benzonitrile] |

tested on: kinases of the PI3K isoenzyme family; assay: not given; conditions: cited from earlier work

| SMILES | inhibition of PI3K isoenzyme family kinases |
| --- | --- |
| CCN1CCN(CC(=O)Nc2ccc(-c3cccc4c(=O)cc(N5CCOCC5)oc34)c3sc4ccccc4c23)CC1 [KU-0060648] | potently inhibited |

tested on: mammal cells; assay: not given; conditions: in cellular terms; cited from earlier work

| SMILES | increase in sensitivity to ionising irradiation |
| --- | --- |
| O=c1cc(N2CCOCC2)oc2c(-c3ccccc3)cccc12 [LY294002] | only a weak increase |
